Literature values in patent US6989450B2 (priority 2000, dated 2006).
Read-outs that look alike come from different tables or passages of the source.

How the values were obtained:
[1] = tested on: multidrug resistant cell lines
[2] = tested on: P-glycoprotein expressing KBV-1 cells; conditions: P-glycoprotein (MDR protein) expressing KBV-1 cells
[3] = water solubility; comparison with taxol
[4] = molecular target: microtubule, or polymeric, form of tubulin; conditions: binding to polymeric tubulin

Structure (SMILES)	potency relative to Taxol [1]	potency relative to Taxol ([1]; multidrug resistant cell lines / cancerous cells with acquired multiple drug resistance)	potency relative to Taxol ([1]; multidrug resistant cell lines / cancerous cells with acquired multiple drug resistance, listed as 1)	IC50 [2]	solubility [3]	KD [4]
C/C(=C\c1csc(C)n1)[C@@H]1C[C@@H]2O[C@@H]2CCC[C@H](C)[C@H](O)[C@@H](C)C(=O)C(C)(C)[C@@H](O)CC(=O)O1 [Epothilone A]	thousand-fold more potent					
C/C(=C\c1csc(C)n1)[C@@H]1C[C@@H]2O[C@]2(C)CCC[C@H](C)[C@H](O)[C@@H](C)C(=O)C(C)(C)[C@@H](O)CC(=O)O1 [Epothilone B]		thousand-fold more active than Taxol	thousand-fold more potent	0.058 µM	better solubility than taxol	
CC(=O)O[C@H]1C(=O)[C@@]2(C)[C@H]([C@H](OC(=O)c3ccccc3)[C@]3(O)C[C@H](OC(=O)[C@H](O)[C@@H](NC(=O)c4ccccc4)c4ccccc4)C(C)=C1C3(C)C)[C@]1(OC(C)=O)CO[C@@H]1C[C@@H]2O [Taxol]				23 µM		micromolar
